The values that follow come from publication PMC12983307 (Journal of the American Chemical Society, 2026).

In this assay the target is AgrC (Staphylococcus aureus, UniProt O07911). The assay can be described thus: fluorescence polarization displacement of TAMRA-AIP-III D4A from AgrC nanodiscs. In kind it is binding. The following applies: read-out: % reduction in polarization at 10 μM. In general terms: Fluorescence polarisation rises when a labelled molecule tumbles more slowly, as on binding a larger partner.
AgrC, sequence (O07911 entry or part of it): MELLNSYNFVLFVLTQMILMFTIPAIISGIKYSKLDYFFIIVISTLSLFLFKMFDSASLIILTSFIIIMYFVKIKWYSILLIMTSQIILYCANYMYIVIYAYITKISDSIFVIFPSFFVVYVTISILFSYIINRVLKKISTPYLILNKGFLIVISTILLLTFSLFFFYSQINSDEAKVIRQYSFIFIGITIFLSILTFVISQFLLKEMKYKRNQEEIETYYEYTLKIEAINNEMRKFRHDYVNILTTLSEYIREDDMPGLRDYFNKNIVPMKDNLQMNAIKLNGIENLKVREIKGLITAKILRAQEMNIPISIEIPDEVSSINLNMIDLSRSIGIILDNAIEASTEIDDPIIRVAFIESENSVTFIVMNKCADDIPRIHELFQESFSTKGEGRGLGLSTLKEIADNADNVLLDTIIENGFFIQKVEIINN

Bridge positions count the residues as written; N and C are the ends. Peptide text beside a SMILES is read from it.

Take `CC[C@H](C)[C@@H]1NC(=O)[C@H](Cc2ccccc2)NC(=O)[C@H](CC(=O)O)NC(=O)[C@@H](NC(=O)[C@@H](NC(=O)[C@H](CO)NC(=O)[C@@H](N)Cc2ccc(O)cc2)[C@@H](C)O)CSC(=O)[C@H](CCSC)NC1=O` [AIP-I] (H-YSTCDFIM; thioester 4-C): the inhibition at 10 µM is 62%.
